Activity calls are given as the source filed them.
How the values were obtained:
[1] = HeLa cell cytotoxicity, dose response, cytotoxicity control for MgcRacGAP inhibitor project (AID 624300); format: functional
[2] = molecular target: T1, Rac GTPase-activating protein 1 (Homo sapiens, UniProt Q9H0H5); test: MgcRacGAP GTPase-activating activity inhibitors, confirmation, biochemical, ADP Hunter fluorescence, primary and confirmatory (AID 624330); format: functional
T1 sequence (Q9H0H5 whole entry): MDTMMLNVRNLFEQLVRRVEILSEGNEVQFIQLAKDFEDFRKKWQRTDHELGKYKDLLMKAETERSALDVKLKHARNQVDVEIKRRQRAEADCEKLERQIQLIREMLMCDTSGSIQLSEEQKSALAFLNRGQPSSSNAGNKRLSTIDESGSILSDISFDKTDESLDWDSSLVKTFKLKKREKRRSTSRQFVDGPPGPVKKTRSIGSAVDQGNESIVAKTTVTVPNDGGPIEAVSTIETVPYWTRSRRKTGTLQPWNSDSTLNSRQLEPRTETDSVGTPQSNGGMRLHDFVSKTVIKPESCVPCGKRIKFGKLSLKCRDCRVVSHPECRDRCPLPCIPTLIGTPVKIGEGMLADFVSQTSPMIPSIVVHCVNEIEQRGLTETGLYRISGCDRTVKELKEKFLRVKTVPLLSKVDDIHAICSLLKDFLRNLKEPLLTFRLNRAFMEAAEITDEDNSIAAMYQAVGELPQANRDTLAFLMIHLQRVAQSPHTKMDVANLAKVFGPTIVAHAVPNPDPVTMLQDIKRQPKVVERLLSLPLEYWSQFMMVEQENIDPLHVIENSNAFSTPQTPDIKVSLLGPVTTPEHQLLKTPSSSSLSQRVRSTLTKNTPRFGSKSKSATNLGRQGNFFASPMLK

[3] = inhibitors of HIV Env-driven cell fusion, dose response, cherry-pick (AID 652057); format: functional, cell-based
[4] = inhibitors of clade B AD8 Env fusion, dose response, cell-based, cherry-pick (AID 652062); format: functional;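 note: luciferase signal from cell-cell fusion driven by HIV-1 clade B AD8 Env; potency is for inhibitors of fusion seen as a drop in luminescence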
[5] = ZM109 Env clade C HIV-1 fusion inhibitors, dose response, HeLa effector, CEM target cells, luciferase, cherry-pick (AID 652058); format: functional, cell-based
[6] = molecular target: Voltage-dependent T-type calcium channel subunit alpha-1H (Homo sapiens, UniProt O95180); format: functional;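 note: channel activity triggered by adding a high calcium stimulation buffer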
[7] = Luminescence Cell-Based Dose Response HTS to Identify Inhibitors of 5'UTR Stem-Loop Driven Prion Protein mRNA Translation in H4 Neuroglioblastoma Cells. [Related pubchem assays: 1827 (Project Summary), 1813 (Primary HTS)]; format: functional
[8] = inhibitors of firefly luciferase expression or activity, dose response, H4 neuroglioma cells, luminescence (AID 1990); format: functional, cell-based
[9] = inhibitors of SNCA 5'UTR-driven reporter translation, confirmation, H4 neuroglioma cells, luminescence (AID 1988); format: functional, cell-based
Prothrombin = Prothrombin (Homo sapiens, UniProt P00734); test: Thrombin 1536 HTS Dose Response Confirmation. [Related pubchem assays: 1046 (Thrombin 1536 HTS; hits were confirmed in this assay)]; format: functional
[10] = molecular target: T2, Zinc finger protein mex-5 (Caenorhabditis elegans, UniProt Q9XUB2); test: MEX-5/TCR-2 RNA interaction inhibitors, dose response, biochemical, C. elegans, fluorescence polarization (AID 1960)
T2 sequence (Q9XUB2 whole entry): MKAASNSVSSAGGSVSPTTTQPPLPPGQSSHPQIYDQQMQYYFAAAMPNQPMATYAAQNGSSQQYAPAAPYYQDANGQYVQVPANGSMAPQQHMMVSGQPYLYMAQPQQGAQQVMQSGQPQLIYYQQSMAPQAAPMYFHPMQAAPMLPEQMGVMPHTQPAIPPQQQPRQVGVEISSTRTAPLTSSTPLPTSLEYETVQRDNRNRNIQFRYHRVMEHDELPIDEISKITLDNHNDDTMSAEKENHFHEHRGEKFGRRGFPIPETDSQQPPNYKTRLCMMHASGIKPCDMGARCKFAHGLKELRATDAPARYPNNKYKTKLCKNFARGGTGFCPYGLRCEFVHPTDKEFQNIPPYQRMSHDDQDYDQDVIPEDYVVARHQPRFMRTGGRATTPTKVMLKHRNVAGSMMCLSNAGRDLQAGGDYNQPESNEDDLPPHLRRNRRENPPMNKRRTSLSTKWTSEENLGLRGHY

[11] = molecular target: T3, RNA-binding protein pos-1 (Caenorhabditis elegans, UniProt G5EF15); test: inhibitors of POS-1/mex-3 RNA binding, dose response, biochemical, fluorescence polarization (AID 1964);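 note: purified POS-1 fused to maltose binding protein made in E. coli; potency of compounds blocking POS-1 binding to fluorescent RNA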
T3 sequence (G5EF15 whole entry): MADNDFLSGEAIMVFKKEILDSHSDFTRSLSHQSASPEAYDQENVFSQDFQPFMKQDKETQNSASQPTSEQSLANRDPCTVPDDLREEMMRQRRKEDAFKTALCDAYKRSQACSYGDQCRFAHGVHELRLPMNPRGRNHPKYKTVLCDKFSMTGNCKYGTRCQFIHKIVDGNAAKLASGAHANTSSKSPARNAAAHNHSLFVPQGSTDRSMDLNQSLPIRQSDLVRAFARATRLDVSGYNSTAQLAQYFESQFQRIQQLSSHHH

[12] = molecular target: T4, Long-chain-fatty-acid--AMP ligase FadD28 (Mycobacterium tuberculosis, UniProt P9WQ59); test: Fluorescence polarization aasay to screen for inhibitors that compete for the binding of FadD28 to a bisubstrate Measured in Biochemical System Using Plate Reader - 2147-01_Inhibitor_Dose_CherryPick_Activity.; format: functional, Mycobacterium tuberculosis H37Rv
T4 sequence (P9WQ59 whole entry): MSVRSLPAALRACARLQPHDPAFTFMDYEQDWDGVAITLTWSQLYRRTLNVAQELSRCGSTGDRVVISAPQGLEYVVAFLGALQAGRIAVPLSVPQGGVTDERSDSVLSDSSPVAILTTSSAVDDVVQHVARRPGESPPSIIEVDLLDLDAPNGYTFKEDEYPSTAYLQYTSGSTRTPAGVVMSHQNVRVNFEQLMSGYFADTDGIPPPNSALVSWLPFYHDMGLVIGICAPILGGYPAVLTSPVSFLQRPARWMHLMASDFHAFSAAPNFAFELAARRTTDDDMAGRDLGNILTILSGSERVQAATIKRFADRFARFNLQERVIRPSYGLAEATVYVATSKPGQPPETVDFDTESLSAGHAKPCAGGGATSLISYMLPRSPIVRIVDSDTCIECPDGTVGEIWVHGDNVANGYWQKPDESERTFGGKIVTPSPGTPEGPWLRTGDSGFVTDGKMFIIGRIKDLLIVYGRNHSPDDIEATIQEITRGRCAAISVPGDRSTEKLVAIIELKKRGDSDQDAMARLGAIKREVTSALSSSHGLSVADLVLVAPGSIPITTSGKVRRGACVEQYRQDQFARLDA

cells [13] = format: functional, cell-based
cells [14] = format: functional, cell-based; remark: listed apart in the source

Voltage-dependent T-type calcium channel subunit alpha-1H, sequence (O95180 whole entry): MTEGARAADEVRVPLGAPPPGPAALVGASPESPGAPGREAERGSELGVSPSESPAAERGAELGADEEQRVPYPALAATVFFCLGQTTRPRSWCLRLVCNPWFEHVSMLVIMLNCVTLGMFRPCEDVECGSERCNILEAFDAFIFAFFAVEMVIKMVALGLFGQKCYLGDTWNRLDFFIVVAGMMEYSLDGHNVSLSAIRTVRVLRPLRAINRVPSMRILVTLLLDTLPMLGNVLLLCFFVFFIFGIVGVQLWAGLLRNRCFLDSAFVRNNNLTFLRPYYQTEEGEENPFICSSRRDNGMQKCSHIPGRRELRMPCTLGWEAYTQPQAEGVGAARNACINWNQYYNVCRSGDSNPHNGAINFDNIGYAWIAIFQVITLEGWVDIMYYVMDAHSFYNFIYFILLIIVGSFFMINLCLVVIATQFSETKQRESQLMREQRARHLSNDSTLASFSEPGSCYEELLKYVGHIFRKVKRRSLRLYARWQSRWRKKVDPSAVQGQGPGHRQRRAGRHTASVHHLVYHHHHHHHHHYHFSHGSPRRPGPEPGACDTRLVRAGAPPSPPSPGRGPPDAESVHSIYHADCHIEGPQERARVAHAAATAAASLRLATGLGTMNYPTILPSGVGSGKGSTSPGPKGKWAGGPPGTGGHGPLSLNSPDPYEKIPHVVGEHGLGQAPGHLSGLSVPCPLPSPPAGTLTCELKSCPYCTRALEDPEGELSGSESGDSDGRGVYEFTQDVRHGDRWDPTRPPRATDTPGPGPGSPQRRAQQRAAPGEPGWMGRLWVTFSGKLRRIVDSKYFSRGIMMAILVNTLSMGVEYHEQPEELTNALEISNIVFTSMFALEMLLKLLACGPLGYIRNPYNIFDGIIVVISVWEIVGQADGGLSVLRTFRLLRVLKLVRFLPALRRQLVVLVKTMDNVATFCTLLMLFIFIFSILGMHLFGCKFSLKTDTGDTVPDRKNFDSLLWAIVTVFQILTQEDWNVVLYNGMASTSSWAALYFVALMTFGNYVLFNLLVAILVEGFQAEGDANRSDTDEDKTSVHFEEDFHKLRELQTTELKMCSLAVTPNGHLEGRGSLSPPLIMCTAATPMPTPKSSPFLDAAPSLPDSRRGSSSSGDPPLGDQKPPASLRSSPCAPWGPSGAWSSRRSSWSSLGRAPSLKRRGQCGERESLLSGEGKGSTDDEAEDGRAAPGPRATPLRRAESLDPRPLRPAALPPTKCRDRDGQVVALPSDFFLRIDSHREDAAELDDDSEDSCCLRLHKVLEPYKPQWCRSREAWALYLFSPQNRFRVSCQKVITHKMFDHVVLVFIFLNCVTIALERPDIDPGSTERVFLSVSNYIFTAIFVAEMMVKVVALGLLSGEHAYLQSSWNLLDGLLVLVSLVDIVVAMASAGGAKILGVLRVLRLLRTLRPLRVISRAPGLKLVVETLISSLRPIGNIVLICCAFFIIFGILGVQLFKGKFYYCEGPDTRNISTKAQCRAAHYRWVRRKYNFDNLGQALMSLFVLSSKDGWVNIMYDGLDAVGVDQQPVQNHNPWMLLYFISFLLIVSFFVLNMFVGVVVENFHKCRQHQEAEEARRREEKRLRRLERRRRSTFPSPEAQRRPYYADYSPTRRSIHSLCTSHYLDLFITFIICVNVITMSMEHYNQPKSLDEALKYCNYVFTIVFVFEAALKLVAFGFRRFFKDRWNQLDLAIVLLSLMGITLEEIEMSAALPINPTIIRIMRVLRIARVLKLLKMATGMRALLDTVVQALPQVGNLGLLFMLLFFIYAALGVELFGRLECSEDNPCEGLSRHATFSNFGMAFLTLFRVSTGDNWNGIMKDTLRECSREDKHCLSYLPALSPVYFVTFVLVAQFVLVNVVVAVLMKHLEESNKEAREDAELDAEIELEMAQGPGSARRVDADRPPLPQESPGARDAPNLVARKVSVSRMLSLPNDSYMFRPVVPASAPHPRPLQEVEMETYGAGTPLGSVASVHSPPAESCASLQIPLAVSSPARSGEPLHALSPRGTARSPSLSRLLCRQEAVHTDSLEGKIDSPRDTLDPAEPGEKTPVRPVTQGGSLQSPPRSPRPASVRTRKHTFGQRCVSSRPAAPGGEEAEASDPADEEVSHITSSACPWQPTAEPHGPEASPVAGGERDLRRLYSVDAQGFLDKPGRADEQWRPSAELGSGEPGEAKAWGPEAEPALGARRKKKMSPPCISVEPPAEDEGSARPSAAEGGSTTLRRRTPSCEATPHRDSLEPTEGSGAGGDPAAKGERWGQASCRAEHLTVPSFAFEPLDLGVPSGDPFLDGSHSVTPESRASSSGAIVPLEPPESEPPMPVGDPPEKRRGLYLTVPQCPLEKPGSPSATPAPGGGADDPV

Compound: COc1cc2c(cc1OC)C(/C=C/c1ccco1)=NCC2
- CC50 [1]: 100 µM (active)
- IC50 [2]: 42.3 µM (active)

Compound: Cc1noc(C)c1S(=O)(=O)N(C)C[C@@H]1Oc2ccc(NC(=O)Nc3cccc4ccccc34)cc2CC(=O)N([C@@H](C)CO)C[C@@H]1C
- AC50 [3]: 4.83 µM (active)
- AC50 [4]: 9.04 µM (active)
- AC50 [5]: 2.44 µM (active)

Compound: CCOC(=O)c1c(C)[nH]c(C)c1C(=O)Cn1nnc(-c2ccccc2C)n1
- EC50 [6]: 5.31 µM (active)
- EC50 [7]: 18.3 µM (active)
- EC50 [8]: > 60 µM (not active)
- EC50 [9]: > 120 µM (not active)

Compound: COc1ccc(-c2nn(C)c(=O)c3ccccc23)cc1CNC(=O)C1CCCCC1
- IC50 (Prothrombin): > 50 µM (not active)

Compound: CSC1=N/C(=C\c2ccc(C)o2)C(=O)S1
- IC50 (Prothrombin): > 50 µM (not active)

Compound: CCc1c(C(=O)NNC(=S)Nc2ccc(S(=O)(=O)Nc3ncccn3)cc2)csc1C
- EC50 [10]: 12.5 µM (active)
- EC50 [11]: > 300 µM (not active)
- AC50 [12]: 89.7 µM (active)

Compound: COc1ccc(/C=C/C(=O)N(C)Cc2cccs2)cc1S(=O)(=O)N1CCOCC1
- AC50 [12]: 42.6 µM (active)

Compound: Cc1c(C(=O)N2CCc3ccccc3C2)oc2ccc(S(=O)(=O)N3CC(C)CC(C)C3)cc12 (stereo not given)
- EC50 (cells [13]): > 29.9 µM (inactive)
- IC50 (cells [14]): > 29.9 µM (inactive)

Compound: Fc1ccc(Oc2cnc3ccccc3n2)cc1
- IC50 (Prothrombin): > 50 µM (not active)

Compound: O=[N+]([O-])c1[nH]cnc1/C=C/c1ccccc1
- EC50 (cells [13]): > 29.9 µM (inactive)
- IC50 (cells [14]): > 29.9 µM (inactive)
